From patent US8729334B2, “Method for determining genotoxicity using non-fluorescent proteins” (priority 2010, dated 2014)
Read-outs that look alike come from different tables or passages of the source.

Experiments:
[1] = tested on: CH4001 (TA100 carrying EGFP^mut1 on chromosome); test: His+ reversion, strain CH4001
Description: (§1) The EGFP^mut DNA was inserted into the chromosome of Salmonella typhimurium LT2 strain via its putA site approximately 5 minutes away from the termination (ter) region of the chromosome (Elliott, 1992). lacP-EGFP^mut::CAT DNA was amplified with primers that contain sequences for the putA site of S. enterica serovar Typhimurium: 5′-primer […] […] […], which consisted of 50-nt or 55-nt of putA (putA sequences are underlined) and 25-nt or 22-nt sequences flaking lacP-nonEGFP::cat using pEGFP^mut::CAT plasmid as template. The 1.4-kbp PCR products were purified and transformed into bacteria carrying a Red helper plasmid (pKD46) by electroporation (Datsenko and Wanner, 2000). The Linear DNA contained a chloramphenicol gene as a marker for the P22 transduction into the S. typhimurium strain of Ames test, TA100 and TA98 to construct CH4001 and 4003, respectively (Davis, et al., 1980).
The plate-incorporation assay was carried out as described (OECD, 1997). Briefly, bacterial cells from stock cultures were grown for 12 hr in liquid medium at 37° C. A volume of 0.1 mL bacterial suspension was added to 2 mL of top agar (Difco) medium containing 0.6% agar, 0.6% NaCl and 20.96 μg of l-histidine and d-biotin (Sigma). […] Colonies were counted 48 hr after incubation at 37° C. […]

S. typhimurium TA98 = test: Ames test, His+ reversion, tester strain TA98; conditions: for Number of revertants, TA98, phenotype His^+: total 10^6 bacteria plated on minimal media plates
Description: (§2) S. typhimurium strain of Ames test, TA98 and TA, were purchased and grown following manufacture's instruction (Xenometrix AG, Switzerland). CH4001 and CH4003 strains carrying EGFP^mut DNA on their chromosomes (Table 1) were created as described in Result section.
(§3) The plate-incorporation assay was carried out as described (OECD, 1997). Briefly, bacterial cells from stock cultures were grown for 12 hr in liquid medium at 37° C. A volume of 0.1 mL bacterial suspension was added to 2 mL of top agar (Difco) medium containing 0.6% agar, 0.6% NaCl and 20.96 μg of l-histidine and d-biotin (Sigma). Test solution (or solvent control, or positive control agent) and the S9-mix (0.5 mL/plate; 10% (v/v) S9) or potassium phosphate buffer (0.5 mL/plate; 0.2 M, pH 7.4; Sigma) were also added to the top agar which was then mixed and poured onto the top of Vogel-Bonner minimal medium agar plates (3 replicates/dose for the treated and 6 replicates for the solvent control). Colonies were counted 48 hr after incubation at 37° C. The highest volume of the test solution added per plate was initially limited to 100 μL, and then increased up to 200 μL in confirmation studies.
(§4) We tested mutation frequency of these two strains together with conventional Ames test strains, TA100 and TA98, in the presence of mutagens, ENU and ICR191. ENU is known to induce base-pair substitution while ICR191 frameshift mutation (OECD, 1997). His^+ revertants were selected on minimal plates and EGFP^+ revertants were screened on NA plates which allowed visualization of about 10^6 colonies individually. […], a test strain for frameshift mutation, together with TA98, was incubated with 1 mg/plate ICR191.

S. typhimurium TA100 = test: Ames test, His+ reversion, tester strain TA100
Description: as §2, §3
We tested mutation frequency of these two strains together with conventional Ames test strains, TA100 and TA98, in the presence of mutagens, ENU and ICR191. […]

[2] = tested on: CH4003 (TA98 carrying EGFP^mut3 on chromosome); test: His+ reversion, strain CH4003; conditions: for Number of revertants, EGFP^mut2 TA98, phenotype His^+: total 10^6 bacteria plated on minimal media plates
Description: as §1, §3
Subsequently, the gene for EGFP^mut was placed in the chromosome of relevant Salmonella typhimurium to establish mutation test strains analogous to that of Ames test. […]

[3] = tested on: CH4003 (TA98 carrying EGFP^mut3 on chromosome); conditions: for Number of revertants, EGFP^mut2 TA98, phenotype EGFP^+: total 10^6 bacteria plated on NA plates
Description: as §1
(§5) Subsequently, the gene for EGFP^mut was placed in the chromosome of relevant Salmonella typhimurium to establish mutation test strains analogous to that of Ames test. Linear DNA transformation method using λ Red system (Datsenko and Wanner, 2000) was employed to place the EGFP^mut genes at putAP sites (Elliott, 1992) in the wild type Salmonella chromosome, LT2. Then, each EGFP^mut1 and EGFP^mut3 gene was moved to TA100 and TA98 using generalized transducing phage, P22, resulting in a construction of CH 4001 and 4003.
as §4

[4] = tested on: CH4001 (TA100 carrying EGFP^mut1 on chromosome)
Description: as §1, §5, §4

[5] = tested on: MutaFish^1 carrying EGFP^mut1; test: Genotoxicity test in transgenic zebrafish embryos, MutaFish^1
Text: EGFP^mut plasmid constructed as described above was microinjected into one-cell stage fertilized eggs laid by the AB* zebrafish line (Oregon University, Corvallis, Oreg.) with transposase mRNA. The microinjected eggs were raised to sexual maturity and mated to wild type AB* zebrafish. Subsequently, the resulting embryos were screened for the presence of mCherry fluorescence in the heart. The screened embryos (hereinafter named as F1) were processed for RT-PCR, Western blotting and Southern blotting to verify the genomic integration of mutant EGFP. The F1 embryos were raised again to sexual maturity and mated to each other to generate F2 embryos homozygous for EGFP^mut. F3 embryos, generated by in-cross between F2 zebrafish, were raised again to sexual maturity.
Fertilized eggs were obtained by pair mating transgenic F3 female and nontransgenic male fish. We divided 24 hr embryos, still coated with chorion, into three groups (266 embryos/group) and exposed them for 30 min at 26° C. to 10 ml of 0, 2, or 5 mM ENU in 0.1% Instant Ocean salts (Senja Pharmaceutical, Hyogo, Japan). Mutagenized embryos were then rinsed and kept in a 28.5° C. incubator for three days. […] The pooled surviving larvae were checked for morphological abnormality and EGFP^+ larvae were selected and then scored by FACSAria (BD Biosciences).
We injected Tol2 plasmid encoding EGFP^mut and transposase mRNA into one-cell stage fertilized zebrafish eggs. F1 progeny with germline transmission were selected by PCR and Southern blot analysis as described in the Experimental Protocol.
To evaluate whether these transgenic fishes could detect mutations in vivo, 24 hr embryos obtained by pair mating the transgenic and nontransgenic fish were treated with mutagens for 30 min: MutaFish^1 with ENU (5 mM) and MutaFish^3 with ICR191 (10 mM). Three days after treatment, the number of EGFP^+ larvae was determined (Table 4).

[6] = tested on: MutaFish^3 carrying EGFP^mut3; test: Genotoxicity test in transgenic zebrafish embryos, MutaFish^3; assay type: in vivo, zebrafish (Danio rerio)
Description: Almost all embryos were hatched during this incubation period.
One highly transgene-positive line was established.

[7] = 0.1 mg/plate ENU, total 10^6 bacteria plated on minimal media plates
[8] = EGFP^mut1 MutaFish, 24 hr embryos, 5 mM ENU for 30 min, scored three days after treatment

CCN(N=O)C(N)=O [ENU]
Number of revertants, EGFP^mut1 TA100, phenotype His^+ [1, 7]: 5.2 | frequency of His^+ revertants in CH4001 ([1]; 0.1 mg/plate of ENU): 5.2×10^−6 | Number of revertants, TA98, phenotype His^+ (S. typhimurium TA98; 0.1 mg/plate ENU): 3.2 | Number of revertants, TA100, phenotype His^+ (S. typhimurium TA100; [7]): 5.6 | frequency of His^+ revertants in TA100 (S. typhimurium TA100; 0.1 mg/plate of ENU): 5.6×10^−6 | Number of revertants, EGFP^mut2 TA98, phenotype His^+ ([2]; 0.1 mg/plate ENU): 3.5 | Number of revertants, EGFP^mut2 TA98, phenotype EGFP^+ ([3]; 0.1 mg/plate ENU): 3.2 | Number of revertants, EGFP^mut1 TA100, phenotype EGFP^+ ([4]; 0.1 mg/plate ENU, total 10^6 bacteria plated on NA plates): 7.1 | frequency of EGFP^+ reversion ([4]; in the presence of ENU (0.1 mg/plate), CH4001): 7.1×10^−6 | Morphological abnormality (%) [5, 8]: 20.9% | Survival rate (%) [5, 8]: 97.3% | Mutant frequency × 10^−5 ([5]; EGFP^mut1 MutaFish, EGFP^+ larvae, 5 mM ENU for 30 min, three days after treatment): 63 × 10^−5 | frequency of EGFP^+ larvae ([5]; MutaFish^1, ENU 5 mM for 30 min, three days after treatment): 6.3×10^−4

COc1ccc2nc3cc(Cl)ccc3c(NCCCNCCCl)c2c1 [ICR191]
frequency of EGFP^+ larvae ([6]; MutaFish^3, ICR191 10 mM for 30 min, three days after treatment): 2.32×10^−3 | Morphological abnormality (%) ([6]; zebrafish, in vivo): 24.2% | Mutant frequency × 10^−5 ([6]; zebrafish, in vivo): 232 × 10^−5 | Survival rate (%) ([6]; zebrafish, in vivo): 79.2% | frequency of His^+ revertants in TA98 (S. typhimurium TA98; 1 mg/plate ICR191): 327.6×10^−6 | Number of revertants, TA98, phenotype His^+ (S. typhimurium TA98; 1 mg/plate ICR191): 420.8 | mutation frequency of His^+ revertants in CH4003 ([2]; 1 mg/plate ICR191): 420.8×10^−6 | Number of revertants, EGFP^mut2 TA98, phenotype His^+ ([2]; 1 mg/plate ICR191): 377.6 | Number of revertants, EGFP^mut2 TA98, phenotype EGFP^+ ([3]; 1 mg/plate ICR191): 456.3 | frequency of EGFP^+ revertants ([3]; in the presence of ICR191 (1 mg/plate), CH4003): 456.3×10^−6
